Assay: xn = mol fraction of the nth substance listed
Conditions: 101 kPa, Liquid; for electrical conductivity: Direct current cell with electrodes; for viscosity: Falling or rolling sphere viscometry; for mass density: Vibrating tube method

CC(C)C[C@H](N)C(=O)[O-].CCCC[P+](CCCC)(CCCC)CCCN [(3-aminopropyl)tributylphosphonium L-leucinate] + O
Conditions	electrical conductivity [S/m]	mass density [kg/m3]	viscosity [mPa·s]
298.15 K, x2 = 0	0.008	971.86	1227.9
298.15 K, x2 = 0.25	0.0114	973.97	920.24
298.15 K, x2 = 0.5	0.0173	978.04	599.52
298.15 K, x2 = 0.75	0.0395	987.11	244.81
303.15 K, x2 = 0	0.0108	968.8	855.26
303.15 K, x2 = 0.25	0.0154	970.91	629.98
303.15 K, x2 = 0.5	0.0232	974.9	407.91
303.15 K, x2 = 0.75	0.0515	983.89	174.05
313.15 K, x2 = 0	0.0185	962.68	417.9
313.15 K, x2 = 0.25	0.0254	964.75	308.75
313.15 K, x2 = 0.5	0.0362	968.61	209.07
313.15 K, x2 = 0.75	0.0795	977.44	94.21
323.15 K, x2 = 0	0.0291	956.54	224.29
323.15 K, x2 = 0.25	0.0379	958.56	169.8
323.15 K, x2 = 0.5	0.0515	962.52	116.62
323.15 K, x2 = 0.75	0.116	970.88	55.71
333.15 K, x2 = 0	0.0414	950.54	130.46
333.15 K, x2 = 0.25	0.0542	952.54	101.73
333.15 K, x2 = 0.5	0.0735	956.26	72.42
333.15 K, x2 = 0.75	0.161	964.27	35.35
343.15 K, x2 = 0	0.0605	944.58	81.01
343.15 K, x2 = 0.25	0.0761	946.54	65.08
343.15 K, x2 = 0.5	0.104	949.99	47.47
343.15 K, x2 = 0.75	0.214	957.61	23.97

CCCC[P+](CCCC)(CCCC)CCCN.C[C@H](N)C(=O)[O-] [(3-aminopropyl)tributylphosphonium L-alaninate] + O
Conditions	electrical conductivity [S/m]	mass density [kg/m3]	viscosity [mPa·s]
298.15 K, x2 = 0	0.0141	986.75	804.88
298.15 K, x2 = 0.25	0.0244	988.47	597.85
298.15 K, x2 = 0.5	0.0337	991.4	429.73
298.15 K, x2 = 0.75	0.0647	999.98	208.66
303.15 K, x2 = 0	0.0209	983.72	561.4
303.15 K, x2 = 0.25	0.032	985.39	417.93
303.15 K, x2 = 0.5	0.0439	988.27	304.2
303.15 K, x2 = 0.75	0.0859	996.76	150.37
313.15 K, x2 = 0	0.032	977.65	291.07
313.15 K, x2 = 0.25	0.0487	979.18	222.26
313.15 K, x2 = 0.5	0.0703	982.01	163.31
313.15 K, x2 = 0.75	0.134	990.22	83.45
323.15 K, x2 = 0	0.0464	971.62	164.61
323.15 K, x2 = 0.25	0.0727	973.04	127.07
323.15 K, x2 = 0.5	0.105	975.81	95.01
323.15 K, x2 = 0.75	0.195	983.57	50.38
333.15 K, x2 = 0	0.0649	965.71	106.7
333.15 K, x2 = 0.25	0.101	966.97	78.92
333.15 K, x2 = 0.5	0.147	969.57	59.3
333.15 K, x2 = 0.75	0.265	976.99	32.59
343.15 K, x2 = 0	0.0884	959.97	65.96
343.15 K, x2 = 0.25	0.142	960.89	53.07
343.15 K, x2 = 0.5	0.193	963.3	39.29
343.15 K, x2 = 0.75	0.334	970.15	22.27
